Test results taken from EP0444482B1, “Oxetanones” (F. HOFFMANN-LA ROCHE AG, priority 1990, dated 1991).

Columns and labels:
[1] = target: T1, Schweinepankreaslipase (Sus scrofa, UniProt P00591); experiment: Inhibition of pancreatic lipase (titrimetric measurement of oleic acid released from triolein); type: biochemical, Schwein; settings: substrate triolein emulsion, pH 8, NaOH consumption over 10 min, 1-3 µg lipase; concentration giving half-maximal inhibition of lipase activity; read-out: IC₅₀ (converted)
T1 sequence (P00591 1-450): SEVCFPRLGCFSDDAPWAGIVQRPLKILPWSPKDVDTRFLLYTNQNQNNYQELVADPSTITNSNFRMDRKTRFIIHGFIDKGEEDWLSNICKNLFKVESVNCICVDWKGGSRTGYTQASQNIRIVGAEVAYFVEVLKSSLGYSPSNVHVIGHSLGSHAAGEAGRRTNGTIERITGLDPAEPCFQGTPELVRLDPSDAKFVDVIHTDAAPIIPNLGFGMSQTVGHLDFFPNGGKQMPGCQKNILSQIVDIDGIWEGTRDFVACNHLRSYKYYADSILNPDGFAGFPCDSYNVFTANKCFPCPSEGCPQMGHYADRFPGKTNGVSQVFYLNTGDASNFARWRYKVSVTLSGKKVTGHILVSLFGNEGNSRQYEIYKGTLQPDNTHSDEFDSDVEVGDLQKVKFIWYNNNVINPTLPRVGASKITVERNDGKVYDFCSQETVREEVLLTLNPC
Description: Die Hemmung der Pankreaslipase durch die Oxetanone der Formel I kann experimentell gezeigt werden, indem man die bei der Spaltung von Triolein durch Schweinepankreaslipase freigesetzte Oelsäure titrimetrisch erfasst. Zu einer Emulsion, welche 1 mM Taurodeoxycholat, 9 mM Taurocholat, 0,1 mM Cholesterin, 1 mM Eilezithin, 15 mg/ml BSA, 2 mM Tris-HCl, 100 mM Natriumchlorid, 1 mM Calciumchlorid und das Substrat Triolein enthält, gibt man die in Aethanol oder Dimethylsulfoxid (10% des Emulsionsvolumens) gelöste Verbindung der Formel I und startet die Reaktion durch Zugabe von 1-3 µg Schweinepankreaslipase. Das pH wird während der Reaktion durch Zugabe von Natronlauge bei 8 gehalten. Aus dem während 10 Minuten ermittelten Verbrauch an Natronlauge wird die IC₅₀ berechnet. Die IC₅₀ ist diejenige Konzentration, bei der die Lipaseaktivität halbmaximal gehemmt wird. Die nachfolgende Tabelle enthält die für die Verbindungen der Formel I ermittelten IC₅₀-Werte in µg/ml.

[2] = Acute toxicity after a single oral administration; settings: mouse, in vivo, mice, read-out: akute Toxizität
Description: Die akute Toxizität (nach einmaliger oraler Verabreichung an Mäusen) beträgt mehr als 5000 mg/kg für die Produkte der Beispiele 3d, 3h, 3i, 3l, 4a und 10a, b, e und f.

SMILES: CCCCCCCCCCC[C@@H](C[C@@H]1OC(=O)[C@H]1CCCCCC)OC(=O)C(C(N)=O)C(C)C (single isomer, unassigned) [Beispiel 2b]
- IC50 [1]: 131 nM

SMILES: CCCCCCCCCCCCCCCCC[C@@H](C[C@@H]1OC(=O)[C@H]1CC)OC(=O)C1(C(N)=O)CCCC1 [Beispiel 43, (S)-1-[[(2S,3S)-3-Aethyl-4-oxo-2-oxetanyl]methyl]octadecyl-1-carbamoylcyclopentancarboxylat]
- IC50 [1]: 230 nM

SMILES: CCCCCCCCCCC[C@@H](C[C@@H]1OC(=O)[C@H]1CCCCCC)OC(=O)C(CCCC)C(N)=O (mixture of isomers) [Beispiel 3k, (S)-1-[[(2S,3S)-3-Hexyl-4-oxo-2-oxetanyl]methyl]dodecyl-(RS)-2-butylmalonamat]
- IC50 [1]: 242 nM

SMILES: CCCCC/C=C\C/C=C\CCCCCCC[C@@H](C[C@@H]1OC(=O)[C@H]1CC)OC(=O)C(C(N)=O)C(C)C (single isomer, unassigned) [Beispiel 2g2]
- IC50 [1]: 25.7 nM

SMILES: CCCCCCCCCCC[C@@H](C[C@@H]1OC(=O)[C@H]1CCCCCC)OC(=O)C1(C(N)=O)CCCCC1 [Beispiel 3g, (S)-1-[[(2S,3S)-3-Hexyl-4-oxo-2-oxetanyl]methyl]dodecyl-1-carbamoylcydohexancarboxylat]
- IC50 [1]: 579 nM

SMILES: CCCCCCCCCCCCCCCCC[C@@H](C[C@@H]1OC(=O)[C@H]1CC)OC(=O)C(C(N)=O)C(C)C (single isomer, unassigned) [Beispiel 1b]
- IC50 [1]: 49 nM

SMILES: CCCCCCCCCCC[C@@H](C[C@@H]1OC(=O)[C@H]1CCCCCC)OC(=O)C(CC)(CC)C(N)=O [Beispiel 3l, (S)-1-[[(2S,3S)-3-Hexyl-4-oxo-2-oxetanyl]methyl]dodecyl-2,2-diäthylmalonamat]
- IC50 [1]: 1570 nM
- LD50 [2]: > 5000 mg/kg

SMILES: CCCCCCCCCCC[C@@H](C[C@@H]1OC(=O)[C@H]1CCCCCC)OC(=O)CC(=O)NC [Beispiel 3e, (S)-1-[[(2S,3S)-3-Hexyl-4-oxo-2-oxetanyl]methyl]dodecyl -N-methylmalonamat]
- IC50 [1]: 3110 nM

SMILES: CCCCCCCCCCCCCCCCC[C@@H](C[C@@H]1OC(=O)[C@H]1CC)OC(=O)CC(=O)N(C)C [Beispiel 10d, (S)-1-[[(2S,3S)-3-Aethyl-4-oxo-2-oxetanyl]methyl]octadecyl-N,N-dimethylmalonamat]
- IC50 [1]: 948 nM

SMILES: CCCCCCCCCCC[C@@H](C[C@@H]1OC(=O)[C@H]1CCCCCC)OC(=O)CC(N)=O [Beispiel 3c, 2-Carbamoylessigsäure-(S)-1-[[(2S,3S)-3-hexyl-4-oxo-2-oxetanyl]methyl]dodecylester]
- IC50 [1]: 887 nM

SMILES: CCCCCCCCCCC[C@@H](C[C@@H]1OC(=O)[C@H]1CCCCCC)OC(=O)C(CC)C(N)=O (stereo partly drawn) [Beispiel 3j, (S)-1-[[(2S,3S)-3-Hexyl-4-oxo-2-oxetanyl]methyl]dodecyl-(RS)-2-äthylmalonamat]
- IC50 [1]: 342 nM

SMILES: CCCCCCCCCCCCCCCCC[C@@H](C[C@@H]1OC(=O)[C@H]1CC)OC(=O)C1(C(N)=O)CCCCC1 [Beispiel 4a, (S)-1-[[(2S,3S)-3-Aethyl-4-oxo-2-oxetanyl]methyl]octadecyl-1-carbamoylcyclohexancarboxylat]
- IC50 [1]: 299 nM
- LD50 [2]: > 5000 mg/kg

SMILES: CCCCCCCCCCC[C@@H](C[C@@H]1OC(=O)[C@H]1CCCCCC)OC(=O)C(C)(C)C(N)=O [Beispiel 3h, (S)-1-[[(2S,3S)-3-Hexyl-4-oxo-2-oxetanyl]methyl]dodecyl-2,2-dimethylmalonamat]
- IC50 [1]: 4490 nM
- LD50 [2]: > 5000 mg/kg

SMILES: CCCCCCCCCCCCCCCCC[C@@H](C[C@@H]1OC(=O)[C@H]1CC)OC(=O)C(N)=O [Beispiel 10a, (S)-1-[[(2S,3S)-3-Aethyl-4-oxo-2-oxetanyl]methyl]octadecyloxamat]
- IC50 [1]: 183 nM
- LD50 [2]: > 5000 mg/kg

SMILES: CCCCCCCCCCC[C@@H](C[C@@H]1OC(=O)[C@H]1CCCCCC)OC(=O)C(CC(C)C)C(N)=O (mixture of isomers) [Beispiel 3f, (S)-1-[[(2S,3S)-3-Hexyl-4-oxo-2-oxetanyl]methyl]dodecyl-(RS)-2-carbamoyl-4-methylvalerat]
- IC50 [1]: 167 nM

SMILES: CCCCCCCCCCC[C@@H](C[C@H]1OC(=O)[C@@H]1Cc1ccccc1)OC(=O)C(C(N)=O)C(C)C (single isomer, unassigned) [Beispiel 7b]
- IC50 [1]: 162 nM

SMILES: CCCCCCCCCCCCCCCCC[C@@H](C[C@@H]1OC(=O)[C@H]1CC)OC(=O)CC(=O)NC [Beispiel 10c, (S)-1-[[(2S,3S)-3-Aethyl-4-oxo-2-oxetanyl]methyl]octadecyl-N-methylmalonamat]
- IC50 [1]: 208 nM

SMILES: CCCCCCCCCCCCCCCCC[C@@H](C[C@@H]1OC(=O)[C@H]1CC)OC(=O)C(C(N)=O)C(C)C (single isomer, unassigned) [Beispiel 1a]
- IC50 [1]: 62.8 nM

SMILES: CCCCCCCCCCC[C@@H](C[C@@H]1OC(=O)[C@H]1CCCCCC)OC(=O)C(CCC)C(N)=O (mixture of isomers) [Beispiel 2d, (S)-1-[[(2S,3S)-3-Hexyl-4-oxo-2-oxetanyl]methyl]-dodecyl-(RS) -2-carbamoylvalerat]
- IC50 [1]: 249 nM

SMILES: CCCCCCCCCCCCCCCCC[C@@H](C[C@@H]1OC(=O)[C@H]1CC)OC(=O)CCC(N)=O [Beispiel 10f, (S)-1-[[(2S,3S)-3-Aethyl-4-oxo-2-oxetanyl]methyl]octadecyl-succinamat]
- IC50 [1]: 664 nM
- LD50 [2]: > 5000 mg/kg

SMILES: CCCCCCCCCCCCCCCCC[C@@H](C[C@@H]1OC(=O)[C@H]1CC)OC(=O)[C@@H]1CCC(=O)N1 [Beispiel 78d, 5-Oxo-L-prolin-(S)-1-[[(2S,3S)-3-äthyl-4-oxetanyl]methyl]octadecyl-ester]
- IC50 [1]: 103 nM

SMILES: CCCCCCCCCCCCCCCCC[C@@H](C[C@@H]1OC(=O)[C@H]1CC)OC(=O)[C@H]1CCC(=O)N1 [Beispiel 78c, 5-Oxo-D-prolin-(S)-1-[[(2S,3S)-3-äthyl-4-oxo-2-oxetanyl]methyl]octadecyl-ester]
- IC50 [1]: 567 nM

SMILES: CCCCCCCCCCCCCCCCC[C@@H](C[C@@H]1OC(=O)[C@H]1CC)OC(=O)CC(N)=O [Beispiel 10b, (S)-1-[[(2S,3S)-3-Aethyl-4-oxo-2-oxetanyl]methyl]octadecylmalonamat]
- IC50 [1]: 89.8 nM
- LD50 [2]: > 5000 mg/kg

SMILES: CCCCCCCCCCCCCCCCC[C@@H](C[C@@H]1OC(=O)[C@H]1CC)OC(=O)C1(C(N)=O)OCCO1 [Beispiel 2f, (S)-1-[[(2S,3S)-3-Aethyl-4-oxo-2-oxetanyl]-methyl]octadecyl-2-carbamoyl-1,3-dioxolan-2-carboxylat]
- IC50 [1]: 894 nM

SMILES: CCCCC/C=C\C/C=C\CCCCCCC[C@@H](C[C@@H]1OC(=O)[C@H]1CC)OC(=O)C(C(N)=O)C(C)C (single isomer, unassigned) [Beispiel 2g1]
- IC50 [1]: 103 nM

SMILES: CCCCCCCCCCCCCCCCC[C@@H](C[C@@H]1OC(=O)[C@H]1CC)OC(=O)C(C)C(N)=O (stereo partly drawn) [Beispiel 10e, (S)-1-[[(2S,3S)-3-Aethyl-4-oxo-2-oxetanyl]methyl]octadecyl-(RS)-2-methylmalonamat]
- IC50 [1]: 56 nM
- LD50 [2]: > 5000 mg/kg

SMILES: CCCCCCCCCCC[C@@H](C[C@@H]1OC(=O)[C@H]1CCCCCC)OC(=O)C(Cc1ccccc1)C(N)=O (stereo partly drawn) [Beispiel 45, (S)-1-[[(2S,3S)-3-Hexyl-4-oxo-2-oxetanyl]methyl]dodecyl-(RS)-2-benzylmalonomat]
- IC50 [1]: 88.7 nM

SMILES: CCCCCCCCCCC[C@@H](CC1OC(=O)C1SCCCCC)OC(=O)C(C(N)=O)C(C)C (stereo partly drawn) [Beispiel 6b, (S)-1-[[(2S,3S oder 2R,3R)-4-Oxo-3-pentylthio-2-oxetanyl]methyl]-dodecyl-[S:R oder R:S(2:1)]-2-isopropylmalonamat]
- IC50 [1]: 112 nM

SMILES: CCCCCCCCCCCCCCCCC[C@@H](C[C@@H]1OC(=O)[C@H]1CC)OC(=O)C(C(N)=O)C(C)(C)C (single isomer, unassigned) [Beispiel 37]
- IC50 [1]: 64.9 nM

SMILES: CCCCCCCCCCC[C@@H](C[C@@H]1OC(=O)[C@H]1CCCCCC)OC(=O)CCSCCC(N)=O [Beispiel 51, (S)-1-[[(2S,3S)-3-Hexyl-4-oxo-2-oxetanyl]methyl]dodecyl-3-[(2-carbamoyläthyl)thio]propionat]
- IC50 [1]: 701 nM

SMILES: CCCCCCCCCCC[C@@H](C[C@@H]1OC(=O)[C@H]1CCCCCC)OC(=O)C(C)C(N)=O (mixture of isomers) [Beispiel 3i, (S)-1-[[(2S,3S)-3-Hexyl-4-oxo-2-oxetanyl]methyl]dodecyl-(RS)-2-methylmalonamat]
- IC50 [1]: 926 nM
- LD50 [2]: > 5000 mg/kg

SMILES: CCCCCCCCCCCCCCCCC[C@@H](C[C@@H]1OC(=O)[C@H]1CC)OC(=O)C(CCC)C(N)=O (stereo partly drawn) [Beispiel 2e, (S)-1-[[(2S,3S)-3-Aethyl-4-oxo-2-oxetanyl]-methyl]octadecyl-(RS)-2-carbamoylvalerat]
- IC50 [1]: 100 nM

SMILES: CCCCCCCCCCC[C@@H](C[C@@H]1OC(=O)[C@H]1CCCCCC)OC(=O)C(N)=O [Beispiel 3d, (S)-1-[[(2S,3S)-3-Hexyl-4-oxo-2-oxetanyl]methyl]dodecyloxamat]
- IC50 [1]: 2110 nM
- LD50 [2]: > 5000 mg/kg
